From patent US11420970B1 (NOVARTIS AG, priority 2019, dated 2022)
pIC50: −log10 of the molar value.

Columns and labels:
NSD2 [1-1365] = NSD2 [1-1365] (Homo sapiens (Human), UniProt O96028); assay: LC-MS/MS-based NSD2 enzymatic assay (SAH production); assay type: biochemical; conditions: NSD2 biochemical activity, class symbols; read-out: NSD2 IC50
Summary of the method: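 SAH formed was measured by LC-MS/MS using d4-SAH as internal standard and an SAH calibration curve. Compounds were preincubated 20 min with NSD2 [1-1365] and SAM; mouse-liver nucleosome then started a 90 min room-temperature reaction (8 nM enzyme, 1 μM SAM, 400 nM nucleosome final, pH 8.0), stopped with TFA.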

[1] = test system: cellular H3K36me2 level in thyroid carcinoma cell line CGTH-W-1 (NSD2 E1099K); assay: H3K36me2 cellular ELISA assay in CGTH-W-1 line; assay type: cell-based; conditions: Homo sapiens, CGTH-W-1, 72 h, read-out: H3K36me2 ELISA in CGTH-W-1
Experimental: H3K36Me2 Cellular ELISA Assay in CGTH-W-1 Line
An ELISA (enzyme-linked immunosorbent assay) based assay was used to test the ability of candidate compound to reduce cellular H3K36me2 level in thyroid carcinoma cell line CGTH-W-1, carrying NSD2 E1099K gain of function mutation. CGTH-W-1 (DSMZ) cells are maintained in RPM11640 media with 10% FBS and 50 U/ml Penicillin-Streptomycin.
Cells were treated with tested compounds at the desired concentration for 72 hours.
Histone bound plates were washed and blocked with 5% BSA. […] The abundance of H3K36me2 and total H3 was measured by Chemiluminesce on a plate reader. Cell viability was monitored on a parallel seeded plate with CellTiter-Glo reagent (Promega #G7573).

[2] = test system: cellular H3K36me2 level in multiple myeloma cell line KMS11 (t(4;14)+); assay: H3K36me2 cellular ELISA assay in KMS11-Par line; assay type: cell-based; conditions: Homo sapiens, KMS-11; KMS11-Par line (t(4;14)+), 72 hours treatment, ELISA; read-out: H3K36me2 ELISA in KMS11-Par
Summary of the method: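 After 72 h compound exposure, HCl-extracted histones from KMS11 (t(4;14)+) cells were probed by ELISA for H3K36me2 against total H3 with a chemiluminescence read-out. Cells were plated at 1,250/well in Opti-MEM plus B-27 and N2 the day before. A parallel CellTiter-Glo plate tracked viability.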

Sequence of NSD2 [1-1365] (O96028 whole entry): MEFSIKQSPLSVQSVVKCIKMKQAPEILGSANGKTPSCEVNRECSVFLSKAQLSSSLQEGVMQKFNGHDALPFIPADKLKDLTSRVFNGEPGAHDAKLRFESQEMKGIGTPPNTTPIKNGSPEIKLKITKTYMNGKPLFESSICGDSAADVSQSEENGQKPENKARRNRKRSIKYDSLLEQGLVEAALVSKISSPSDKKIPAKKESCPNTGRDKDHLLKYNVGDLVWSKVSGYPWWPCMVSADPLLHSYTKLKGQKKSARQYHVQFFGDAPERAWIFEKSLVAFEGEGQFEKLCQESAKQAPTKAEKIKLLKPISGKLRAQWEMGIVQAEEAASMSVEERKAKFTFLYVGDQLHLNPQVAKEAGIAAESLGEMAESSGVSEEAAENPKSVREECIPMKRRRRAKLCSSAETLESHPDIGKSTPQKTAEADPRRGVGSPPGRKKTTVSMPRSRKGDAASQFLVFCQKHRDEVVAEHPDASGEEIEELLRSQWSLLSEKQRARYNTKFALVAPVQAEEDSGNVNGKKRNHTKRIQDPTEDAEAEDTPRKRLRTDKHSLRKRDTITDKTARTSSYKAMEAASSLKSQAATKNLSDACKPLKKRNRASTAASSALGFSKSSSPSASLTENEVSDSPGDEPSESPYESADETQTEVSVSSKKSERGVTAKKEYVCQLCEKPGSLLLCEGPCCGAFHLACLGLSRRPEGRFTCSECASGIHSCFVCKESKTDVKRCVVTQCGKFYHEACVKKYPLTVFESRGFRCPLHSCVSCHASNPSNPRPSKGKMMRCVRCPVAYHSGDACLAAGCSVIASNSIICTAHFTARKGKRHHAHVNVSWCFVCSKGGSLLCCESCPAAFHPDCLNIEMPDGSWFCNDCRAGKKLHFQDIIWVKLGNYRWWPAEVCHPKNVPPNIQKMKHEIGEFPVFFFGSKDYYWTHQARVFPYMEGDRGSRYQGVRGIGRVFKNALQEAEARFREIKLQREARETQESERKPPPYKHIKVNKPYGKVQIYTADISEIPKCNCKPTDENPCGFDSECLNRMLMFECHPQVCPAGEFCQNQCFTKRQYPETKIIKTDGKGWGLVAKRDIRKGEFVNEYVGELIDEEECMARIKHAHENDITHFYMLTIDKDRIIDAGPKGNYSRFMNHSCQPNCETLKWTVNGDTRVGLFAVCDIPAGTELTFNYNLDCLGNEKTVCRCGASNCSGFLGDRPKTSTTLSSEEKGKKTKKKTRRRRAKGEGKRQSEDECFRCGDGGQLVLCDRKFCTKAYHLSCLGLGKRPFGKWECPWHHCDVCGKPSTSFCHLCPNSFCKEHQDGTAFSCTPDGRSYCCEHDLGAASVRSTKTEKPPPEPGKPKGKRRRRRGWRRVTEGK

Structure (SMILES)	pIC50 (NSD2 [1-1365])	pIC50 [1]	pIC50 [2]
CC(C)[C@H](O)[C@@]1(N)CCCN(c2cnc(-c3ccc(F)c(F)c3)cc2Cn2cnc3c(N)ncnc32)C1 [Example 98, (S)-1-((R)-3-amino-1-(4-((6-amino-9H-purin-9-yl)methyl)-6-(3,4-difluorophenyl)pyridin-3-yl)piperidin-3-yl)-2-methylpropan-1-ol]	6.00 to 8.00	5.82	5.20
CC[C@H](C)C(=O)[C@@]1(N)CCCN(c2cnc(-c3ccc(F)c(F)c3)cc2Cn2cnc3c(N)ncnc32)C1 [Example 101, (S)-1-((R)-3-amino-1-(4-((6-amino-9H-purin-9-yl)methyl)-6-(3,4-difluorophenyl)pyridin-3-yl)piperidin-3-yl)-2-methylbutan-1-one]	8.00 to 9.00	7.40	7.47
CC[C@@H](C)C(=O)[C@@]1(N)CCCN(c2cnc(-c3ccc(F)c(F)c3)cc2Cn2cnc3c(N)ncnc32)C1 [Example 102, (R)-1-((R)-3-amino-1-(4-((6-amino-9H-purin-9-yl)methyl)-6-(3,4-difluorophenyl)pyridin-3-yl)piperidin-3-yl)-2-methylbutan-1-one]	6.00 to 8.00	7.22	6.60
CC(C(=O)C1(N)CCCN(c2cnc(-c3ccc(F)c(F)c3)cc2Cn2cnc3c(N)ncnc32)C1)C1CC1 (stereo not drawn) [Example 103, 1-(3-amino-1-(4-((6-amino-9H-purin-9-yl)methyl)-6-(3,4-difluorophenyl)pyridin-3-yl)piperidin-3-yl)-2-cyclopropylpropan-1-one]	6.00 to 8.00	6.86	6.42
CC(C)C(=O)[C@@]1(N)CCCN(c2cnc(-c3ccc(F)c(F)c3)cc2Cn2cnc3c(N)ncnc32)C1 [Example 104, (R)-1-(3-amino-1-(4-((6-amino-9H-purin-9-yl)methyl)-6-(3,4-difluorophenyl)pyridin-3-yl)piperidin-3-yl)-2-methylpropan-1-one]	6.00 to 8.00	7.59	7.22
Nc1ncnc2c1ncn2Cc1cc(-c2ccc(F)c(F)c2)ncc1N1CCCC(N)(C(=O)C2CCC2)C1 (stereo not drawn) [Example 105, (3-amino-1-(4-((6-amino-9H-purin-9-yl)methyl)-6-(3,4-difluorophenyl)pyridin-3-yl)piperidin-3-yl)(cyclobutyl)methanone]	6.00 to 8.00	7.17	6.85
COC1CCC(C(=O)C2(N)CCCN(c3cnc(-c4ccc(F)c(F)c4)cc3Cn3cnc4c(N)ncnc43)C2)C1 (stereo not drawn) [Example 106, (3-amino-1-(4-((6-amino-9H-purin-9-yl)methyl)-6-(3,4-difluorophenyl)pyridin-3-yl)piperidin-3-yl)(3-methoxycyclopentyl)methanone]	6.00 to 8.00	6.30	5.84
CC1(C(=O)C2(N)CCCN(c3cnc(-c4ccc(F)c(F)c4)cc3Cn3cnc4c(N)ncnc43)C2)CC1 (stereo not drawn) [Example 107, (3-amino-1-(4-((6-amino-9H-purin-9-yl)methyl)-6-(3,4-difluorophenyl)pyridin-3-yl)piperidin-3-yl)(1-methylcyclopropyl)methanone]	6.00 to 8.00	6.35	5.52
Nc1ncnc2c1ncn2Cc1cc(-c2ccc(F)c(F)c2)ncc1N1CCCC(N)(C(=O)C2CCOCC2)C1 (stereo not drawn) [Example 108, (3-amino-1-(4-((6-amino-9H-purin-9-yl)methyl)-6-(3,4-difluorophenyl)pyridin-3-yl)piperidin-3-yl)(tetrahydro-2H-pyran-4-yl)methanone]	6.00 to 8.00	6.11	5.71
CC(C)(C)C(=O)[C@@]1(N)CCCN(c2cnc(-c3ccc(F)c(F)c3)cc2Cn2cnc3c(N)ncnc32)C1 [Example 109, (R)-1-(3-amino-1-(4-((6-amino-9H-purin-9-yl)methyl)-6-(3,4-difluorophenyl)pyridin-3-yl)piperidin-3-yl)-2,2-dimethylpropan-1-one]	6.00 to 8.00	5.68	5.56
Cn1ccc(C(=O)C2(N)CCCN(c3cnc(-c4ccc(F)c(F)c4)cc3Cn3cnc4c(N)ncnc43)C2)n1 (stereo not drawn) [Example 110, (3-amino-1-(4-((6-amino-9H-purin-9-yl)methyl)-6-(3,4-difluorophenyl)pyridin-3-yl)piperidin-3-yl)(1-methyl-1H-pyrazol-3-yl)methanone]	6.00 to 8.00	5.87	5.20
Nc1ncnc2c1ncn2Cc1cc(-c2ccc(F)c(F)c2)ncc1N1CCC[C@](N)([C@@H](O)C(F)F)C1 [Example 113, (R)-1-((R)-3-amino-1-(4-((6-amino-9H-purin-9-yl)methyl)-6-(3,4-difluorophenyl)pyridin-3-yl)piperidin-3-yl)-2,2-difluoroethan-1-ol]	6.00 to 8.00	6.84	6.12
Nc1ncnc2c1ncn2Cc1cc(-c2ccc(F)c(F)c2)ncc1N1CCC[C@](N)([C@H](O)C(F)F)C1 [Example 114, (S)-1-((R)-3-amino-1-(4-((6-amino-9H-purin-9-yl)methyl)-6-(3,4-difluorophenyl)pyridin-3-yl)piperidin-3-yl)-2,2-difluoroethan-1-ol]	6.00 to 8.00	6.35	5.71
Cc1cc(C(F)F)ccc1-c1cc(Cn2cnc3c(N)ncnc32)c(N2CCC[C@](N)([C@@H](O)C(F)F)C2)cn1 [Example 115, (R)-1-((R)-3-amino-1-(4-((6-amino-9H-purin-9-yl)methyl)-6-(4-(difluoromethyl)-2-methylphenyl)pyridin-3-yl)piperidin-3-yl)-2,2-difluoroethan-1-ol]	8.00 to 9.00	7.06	6.03
Nc1ncnc2c1ncn2Cc1cc(-c2ccc(OC(F)F)c(F)c2)ncc1N1CCC[C@](N)([C@H](O)C(F)F)C1 [Example 116, (S)-1-((R)-3-amino-1-(4-((6-amino-9H-purin-9-yl)methyl)-6-(4-(difluoromethoxy)-3-fluorophenyl)pyridin-3-yl)piperidin-3-yl)-2,2-difluoroethan-1-ol]	8.00 to 9.00	6.77	5.87
Cc1cc(F)c(F)cc1-c1cc(Cn2cnc3c(N)ncnc32)c(N2CCC[C@](N)([C@@H](O)C(F)F)C2)cn1 [Example 117, (R)-1-((R)-3-amino-1-(4-((6-amino-9H-purin-9-yl)methyl)-6-(4,5-difluoro-2-methylphenyl)pyridin-3-yl)piperidin-3-yl)-2,2-difluoroethan-1-ol]	8.00 to 9.00	7.17	5.88
Nc1ncnc2c1ncn2Cc1cc(-c2ccc(OC(F)F)c(F)c2)ncc1N1CCC[C@](N)([C@@H](O)C(F)F)C1 [Example 119, (R)-1-((R)-3-amino-1-(4-((6-amino-9H-purin-9-yl)methyl)-6-(4-(difluoromethoxy)-3-fluorophenyl)pyridin-3-yl)piperidin-3-yl)-2,2-difluoroethan-1-ol]	8.00 to 9.00	6.64	5.83
COc1ccc(-c2cc(Cn3cnc4c(N)ncnc43)c(N3CCC[C@](N)([C@@H](O)C(F)F)C3)cn2)cc1Cl [Example 121, (R)-1-((R)-3-amino-1-(4-((6-amino-9H-purin-9-yl)methyl)-6-(3-chloro-4-methoxyphenyl)pyridin-3-yl)piperidin-3-yl)-2,2-difluoroethan-1-ol]	8.00 to 9.00	6.17	5.58
Nc1ncnc2c1ncn2Cc1cc(-c2ccc(F)c(Cl)c2)ncc1N1CCC[C@](N)([C@@H](O)C(F)F)C1 [Example 122, (R)-1-((R)-3-amino-1-(4-((6-amino-9H-purin-9-yl)methyl)-6-(3-chloro-4-fluorophenyl)pyridin-3-yl)piperidin-3-yl)-2,2-difluoroethan-1-ol]	8.00 to 9.00	6.30	5.74
Cn1ncc2cc(-c3cc(Cn4cnc5c(N)ncnc54)c(N4CCC[C@](N)([C@@H](O)C(F)F)C4)cn3)c(F)cc21 [Example 123, (R)-1-((R)-3-amino-1-(4-((6-amino-9H-purin-9-yl)methyl)-6-(6-fluoro-1-methyl-1H-indazol-5-yl)pyridin-3-yl)piperidin-3-yl)-2,2-difluoroethan-1-ol]	8.00 to 9.00	5.83	5.11
Nc1ncnc2c1ncn2Cc1cc(-c2ccc(Cl)c(F)c2)ncc1N1CCC[C@](N)([C@@H](O)C(F)F)C1 [Example 124, (R)-1-((R)-3-amino-1-(4-((6-amino-9H-purin-9-yl)methyl)-6-(4-chloro-3-fluorophenyl)pyridin-3-yl)piperidin-3-yl)-2,2-difluoroethan-1-ol]	8.00 to 9.00	6.80	6.07
